Source: ChEMBL document CHEMBL5042531, “N-Substituted 5-(1H-Indol-2-yl)-2-methoxyanilines Are Allosteric Inhibitors of the Linoleate Oxygenase Activity of Selected Mammalian ALOX15 Orthologs: Mechanism of Action” (J Med Chem, 2022)
Active and inactive are the calls of the source. No cut-off for these calls is given here.

How the values were obtained:
[1] = target: T1, Polyunsaturated fatty acid lipoxygenase ALOX15 (Oryctolagus cuniculus) (UniProt P12530); assay: Selectivity ratio of IC50 for inhibition of wild type Rabbit N-terminal His-tagged ALOX15 expressed in Escherichia coli using linoleic acid as substrate to IC50 for inhibition of wild type rabbit N-terminal His-tagged ALOX15 expressed in Escherichia coli using arachidonic acid as substrate by spectrophotometric assay
T1 sequence (whole entry): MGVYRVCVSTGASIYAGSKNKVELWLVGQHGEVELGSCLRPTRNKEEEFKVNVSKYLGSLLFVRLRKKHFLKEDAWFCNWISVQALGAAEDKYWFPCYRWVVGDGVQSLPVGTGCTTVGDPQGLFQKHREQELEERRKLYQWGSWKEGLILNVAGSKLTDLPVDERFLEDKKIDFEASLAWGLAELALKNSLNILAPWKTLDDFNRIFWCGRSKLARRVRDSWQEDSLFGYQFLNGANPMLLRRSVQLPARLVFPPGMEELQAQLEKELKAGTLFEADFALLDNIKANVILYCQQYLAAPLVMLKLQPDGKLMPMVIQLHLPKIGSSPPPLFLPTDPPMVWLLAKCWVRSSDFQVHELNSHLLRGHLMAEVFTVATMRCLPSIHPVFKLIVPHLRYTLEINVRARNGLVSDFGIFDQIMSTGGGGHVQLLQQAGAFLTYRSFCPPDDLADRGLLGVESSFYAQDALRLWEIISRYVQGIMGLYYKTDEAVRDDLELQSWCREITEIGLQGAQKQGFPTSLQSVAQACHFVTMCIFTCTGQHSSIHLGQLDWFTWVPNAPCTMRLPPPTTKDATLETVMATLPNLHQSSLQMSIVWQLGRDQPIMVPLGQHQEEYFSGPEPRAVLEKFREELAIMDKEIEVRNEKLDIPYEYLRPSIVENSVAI

[2] = target: T2, Polyunsaturated fatty acid lipoxygenase ALOX15 (Oryctolagus cuniculus, UniProt P12530); assay: Inhibition of wild type rabbit N-terminal His-tagged ALOX15 expressed in Escherichia coli using linoleic acid as substrate by spectrophotometric assay
T2 sequence (P12530 whole entry): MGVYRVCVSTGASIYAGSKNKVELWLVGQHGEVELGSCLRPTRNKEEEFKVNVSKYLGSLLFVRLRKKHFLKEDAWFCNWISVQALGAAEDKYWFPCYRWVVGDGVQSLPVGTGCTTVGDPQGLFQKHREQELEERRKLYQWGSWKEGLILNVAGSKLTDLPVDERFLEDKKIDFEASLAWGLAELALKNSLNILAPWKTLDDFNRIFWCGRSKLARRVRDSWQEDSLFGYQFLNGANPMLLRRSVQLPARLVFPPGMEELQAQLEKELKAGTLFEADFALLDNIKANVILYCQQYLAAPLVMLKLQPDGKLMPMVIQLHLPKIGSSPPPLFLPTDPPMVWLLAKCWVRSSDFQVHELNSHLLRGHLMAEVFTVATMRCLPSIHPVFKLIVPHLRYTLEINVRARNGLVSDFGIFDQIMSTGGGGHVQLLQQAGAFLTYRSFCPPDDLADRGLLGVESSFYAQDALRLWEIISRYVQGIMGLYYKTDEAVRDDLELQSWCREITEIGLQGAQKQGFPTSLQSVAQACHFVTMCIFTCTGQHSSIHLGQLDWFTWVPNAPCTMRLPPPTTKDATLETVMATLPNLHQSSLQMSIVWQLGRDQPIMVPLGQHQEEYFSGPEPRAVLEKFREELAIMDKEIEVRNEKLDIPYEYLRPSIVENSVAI

[3] = target: T2, Polyunsaturated fatty acid lipoxygenase ALOX15; assay: Inhibition of wild type rabbit N-terminal His-tagged ALOX15 expressed in Escherichia coli using arachidonic acid as substrate by spectrophotometric assay
[4] = target: T3, Polyunsaturated fatty acid lipoxygenase ALOX15 (Homo sapiens) (UniProt P16050); assay: Selectivity ratio of IC50 for inhibition of recombinant human N-terminal His-tagged ALOX15 expressed in Escherichia coli Rosetta2(DE3)pLysS using linoleic acid as substrate to IC50 for inhibition of recombinant human N-terminal His-tagged ALOX15 expressed in Escherichia coli Rosetta2(DE3)pLysS using arachidonic acid as substrate
T3 sequence (whole entry): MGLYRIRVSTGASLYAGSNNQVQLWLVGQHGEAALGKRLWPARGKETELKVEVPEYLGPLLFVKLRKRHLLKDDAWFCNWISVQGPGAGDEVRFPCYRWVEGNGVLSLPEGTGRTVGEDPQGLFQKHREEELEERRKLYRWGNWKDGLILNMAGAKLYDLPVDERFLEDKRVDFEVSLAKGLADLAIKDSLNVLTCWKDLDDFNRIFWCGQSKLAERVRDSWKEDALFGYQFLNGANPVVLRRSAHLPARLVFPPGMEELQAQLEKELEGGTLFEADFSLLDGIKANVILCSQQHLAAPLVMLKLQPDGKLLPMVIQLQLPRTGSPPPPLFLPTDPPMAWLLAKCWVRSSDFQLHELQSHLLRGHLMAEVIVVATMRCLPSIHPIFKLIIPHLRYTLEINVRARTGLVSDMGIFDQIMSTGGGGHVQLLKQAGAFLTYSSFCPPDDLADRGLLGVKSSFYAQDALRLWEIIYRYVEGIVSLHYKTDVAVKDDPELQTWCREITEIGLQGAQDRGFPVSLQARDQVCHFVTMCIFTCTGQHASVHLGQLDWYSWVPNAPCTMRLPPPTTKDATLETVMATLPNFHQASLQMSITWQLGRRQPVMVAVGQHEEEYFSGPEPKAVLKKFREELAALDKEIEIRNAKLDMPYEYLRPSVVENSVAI

[5] = target: T1, Polyunsaturated fatty acid lipoxygenase ALOX15 (Oryctolagus cuniculus); assay: Selectivity ratio of IC50 for inhibition of wild type rabbit N-terminal His-tagged ALOX15 expressed in Escherichia coli using linoleic acid as substrate to IC50 for inhibition of wild type rabbit N-terminal His-tagged ALOX15 expressed in Escherichia coli using arachidonic acid as substrate
[6] = target: T2, Polyunsaturated fatty acid lipoxygenase ALOX15; assay: Mixed mode inhibition of wild type Rabbit N-terminal His-tagged ALOX15 expressed in Escherichia coli assessed as inhibition constant using linoleic acid as substrate
Oryctolagus cuniculus [7] = species: Oryctolagus cuniculus; assay: Effect on rabbit wild type ALOX15 Ile418Ala mutant-mediated product pattern using arachidonic acid as substrate by 4 uM by RP-HPLC analysis
[8] = target: T2, Polyunsaturated fatty acid lipoxygenase ALOX15; assay: Non-competitive inhibition of wild type rabbit N-terminal His-tagged ALOX15 expressed in Escherichia coli assessed as inhibition constant using linoleic acid as substrate
[9] = Inhibition of rabbit N-terminal His-tagged ALOX15 L183E/L192E double mutant expressed in Escherichia coli arachidonic acid as substrate by spectrophotometric assay; design: species or system Oryctolagus cuniculus
[10] = target: T1, Polyunsaturated fatty acid lipoxygenase ALOX15 (Oryctolagus cuniculus); assay: Effect on rabbit wild type ALOX15-mediated product pattern using arachidonic acid as substrate by 4 uM by RP-HPLC analysis
[11] = Inhibition of rabbit N-terminal His-tagged ALOX15 L183E/L192E double mutant expressed in Escherichia coli linoleic acid as substrate by spectrophotometric assay; design: species or system Oryctolagus cuniculus
[12] = target: T2, Polyunsaturated fatty acid lipoxygenase ALOX15; assay: Mixed mode inhibition of wild type Rabbit N-terminal His-tagged ALOX15 expressed in Escherichia coli assessed as inhibition constant using arachidonic acid as substrate
[13] = target: T1, Polyunsaturated fatty acid lipoxygenase ALOX15 (Oryctolagus cuniculus); assay: Inhibition of wild type rabbit N-terminal His-tagged ALOX15 expressed in Escherichia coli assessed as decrease in Kcat using linoleic acid as substrate
Oryctolagus cuniculus [14] = species: Oryctolagus cuniculus; assay: Effect on rabbit wild type ALOX15 Ile418Ala mutant-mediated product pattern assessed as reduction in 12-H(p)ETE formation using arachidonic acid as substrate by 4 uM by RP-HPLC analysis
[15] = target: T4, Polyunsaturated fatty acid lipoxygenase ALOX15 (Mus musculus) (UniProt P39654); assay: Inhibition of recombinant mouse N-terminal His-tagged ALOX15 expressed in Escherichia coli Rosetta2(DE3)pLysS at 2 uM using arachidonic acid as substrate by HPLC analysis
T4 sequence (whole entry): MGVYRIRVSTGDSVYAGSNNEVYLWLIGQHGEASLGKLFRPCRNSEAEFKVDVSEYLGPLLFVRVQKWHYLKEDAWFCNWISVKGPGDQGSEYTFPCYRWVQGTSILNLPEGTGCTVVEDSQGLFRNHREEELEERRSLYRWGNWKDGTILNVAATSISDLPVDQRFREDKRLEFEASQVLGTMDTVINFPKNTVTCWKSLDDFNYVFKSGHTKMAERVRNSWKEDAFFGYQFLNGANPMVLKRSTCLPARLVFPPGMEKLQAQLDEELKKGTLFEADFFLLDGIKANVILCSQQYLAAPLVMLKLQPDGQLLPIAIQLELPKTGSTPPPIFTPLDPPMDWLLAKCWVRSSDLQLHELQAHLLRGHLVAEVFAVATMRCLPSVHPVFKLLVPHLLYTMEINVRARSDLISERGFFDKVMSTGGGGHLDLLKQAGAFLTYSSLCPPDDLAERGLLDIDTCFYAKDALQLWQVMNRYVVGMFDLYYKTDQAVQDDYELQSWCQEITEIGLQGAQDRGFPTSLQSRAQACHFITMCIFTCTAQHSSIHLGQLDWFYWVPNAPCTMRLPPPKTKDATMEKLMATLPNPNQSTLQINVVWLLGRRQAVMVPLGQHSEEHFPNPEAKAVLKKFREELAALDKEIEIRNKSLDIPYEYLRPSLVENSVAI

[16] = target: T1, Polyunsaturated fatty acid lipoxygenase ALOX15 (Oryctolagus cuniculus); assay: Inhibition of wild type rabbit N-terminal His-tagged ALOX15 expressed in Escherichia coli assessed as effect on Km using linoleic acid as substrate
[17] = target: T4, Polyunsaturated fatty acid lipoxygenase ALOX15 (Mus musculus); assay: Inhibition of recombinant mouse N-terminal His-tagged ALOX15 expressed in Escherichia coli Rosetta2(DE3)pLysS at 2 uM using linoleic acid as substrate by HPLC analysis
[18] = target: T1, Polyunsaturated fatty acid lipoxygenase ALOX15 (Oryctolagus cuniculus); assay: Inhibition of wild type rabbit N-terminal His-tagged ALOX15 expressed in Escherichia coli assessed as decrease in Kcat using arachidonic acid as substrate
[19] = compound: COc1ccc(-c2cc3cc(F)ccc3[nH]2)cc1NS(=O)(=O)NC(=O)OCC(C)C; assay: Inhibition of wild type Rabbit N-terminal His-tagged ALOX15 expressed in Escherichia coli assessed as effect on Km using arachidonic acid as substrate; conditions: Oryctolagus cuniculus

Molecule: C=CCOC(=O)NS(=O)(=O)Nc1cc(-c2cc3ccccc3[nH]2)ccc1OC
- Ratio IC50 [1]: 0.014
- IC50 [2]: 630 nM
- IC50 [3]: 43300 nM

Molecule: COc1ccc(-c2cc3cc(F)c(F)cc3[nH]2)cc1NS(=O)(=O)NC(=O)OCC(C)C
- Ratio IC50 [4]: 0.03

Molecule: CCCCCc1ccc(S(=O)(=O)NCCc2c[nH]c3ccccc23)cc1
- Ratio IC50 [5]: 0.8

Molecule: CCCCc1ccc(S(=O)(=O)NCCc2c(-c3ccc(OC)cc3)[nH]c3ccccc23)cc1
- Ratio IC50 [5]: 0.22

Molecule: CC(C)COC(=O)NS(=O)(=O)Nc1cccc(-c2cc3ccccc3[nH]2)c1
- IC50 [2]: 30000 nM
- IC50 [3]: > 50000 nM

Molecule: CCCCCCCCOC(=O)NS(=O)(=O)Nc1cccc(-c2cc3ccccc3[nH]2)c1
- Ratio IC50 [1]: 0.55
- Ki [6]: 790 nM
- Activity (Oryctolagus cuniculus [7]): inactive
- Ki [8]: 790 nM
- IC50 [2]: 1550 nM
- IC50 [9]: 4950 nM
- IC50 [3]: 2790 nM
- Activity [10]: inactive
- IC50 [11]: 7020 nM
- Ki [12]: 3130 nM

Molecule: CCCCCCCCOC(=O)NS(=O)(=O)Nc1cc(-c2cc3cc(F)ccc3[nH]2)ccc1OC
- Ratio IC50 [1]: 0.043
- IC50 [2]: 47 nM
- IC50 [3]: 1080 nM

Molecule: C=CCOC(=O)NS(=O)(=O)Nc1cc(-c2cc3cc(F)ccc3[nH]2)ccc1OC
- Ratio IC50 [1]: 0.023
- IC50 [2]: 540 nM
- IC50 [3]: 23300 nM

Molecule: C=CCOC(=O)NS(=O)(=O)Nc1cccc(-c2cc3ccccc3[nH]2)c1
- IC50 [2]: 15400 nM
- IC50 [3]: > 50000 nM

Molecule: CCCCCc1ccc(S(=O)(=O)NCCc2nc(-c3ccccn3)[nH]c2-c2ccc(OC)cc2)cc1
- Ratio IC50 [5]: 0.02

Molecule: CCCCCCCCOC(=O)NS(=O)(=O)Nc1cc(-c2cc3ccccc3[nH]2)ccc1OC
- Activity [13]: Active
- Activity (Oryctolagus cuniculus [14]): Active
- inhibition [15]: inactive
- Activity [16]: Active
- inhibition [17]: inactive
- Activity [10]: inactive
- inhibition [18]: Active

Molecule: COc1ccc(-c2cc3ccccc3[nH]2)cc1NS(=O)(=O)NC(=O)OCC(C)C
- IC50 [2]: 1450 nM
- IC50 [3]: > 50000 nM

Molecule: COc1ccc(-c2cc3cc(F)ccc3[nH]2)cc1NS(=O)(=O)NC(=O)OCC(C)C
- Ratio IC50 [1]: 0.02
- Activity [13]: Active
- Ki [8]: 290 nM
- IC50 [2]: 420 nM
- Activity [16]: Active
- IC50 [3]: 20800 nM
- inhibition [18]: Active

B1: Polyunsaturated fatty acid lipoxygenase ALOX15 (Oryctolagus cuniculus), P12530 (protein)
chain: MGVYRVCVSTGASIYAGSKNKVELWLVGQHGEVELGSCLRPTRNKEEEFKVNVSKYLGSLLFVRLRKKHFLKEDAWFCNWISVQALGAAEDKYWFPCYRWVVGDGVQSLPVGTGCTTVGDPQGLFQKHREQELEERRKLYQWGSWKEGLILNVAGSKLTDLPVDERFLEDKKIDFEASLAWGLAELALKNSLNILAPWKTLDDFNRIFWCGRSKLARRVRDSWQEDSLFGYQFLNGANPMLLRRSVQLPARLVFPPGMEELQAQLEKELKAGTLFEADFALLDNIKANVILYCQQYLAAPLVMLKLQPDGKLMPMVIQLHLPKIGSSPPPLFLPTDPPMVWLLAKCWVRSSDFQVHELNSHLLRGHLMAEVFTVATMRCLPSIHPVFKLIVPHLRYTLEINVRARNGLVSDFGIFDQIMSTGGGGHVQLLQQAGAFLTYRSFCPPDDLADRGLLGVESSFYAQDALRLWEIISRYVQGIMGLYYKTDEAVRDDLELQSWCREITEIGLQGAQKQGFPTSLQSVAQACHFVTMCIFTCTGQHSSIHLGQLDWFTWVPNAPCTMRLPPPTTKDATLETVMATLPNLHQSSLQMSIVWQLGRDQPIMVPLGQHQEEYFSGPEPRAVLEKFREELAIMDKEIEVRNEKLDIPYEYLRPSIVENSVAI
- Km [19]: Active
